Source: ChEMBL document CHEMBL1201862, “PubChem BioAssay data set” (2004)
Active and inactive are the calls of the source.

How the values were obtained:
[1] = molecular target: Eukaryotic translation initiation factor 4E (Mus musculus, UniProt P63073); assay: eIF4E–eIF4G protein interaction inhibitors, dose response, biochemical, TR-FRET (AID 855); assay type: functional;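 also: potency for disrupting eIF4E binding to eIF4GI seen as loss of FRET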
[2] = molecular target: T1, Short transient receptor potential channel 4 (Mus musculus, UniProt Q9QUQ5); assay: mouse TRPC4 channel activators, dose response, cell-based, HEK293 TRPC4/mu-opioid, Fluo-4 calcium (AID 434937); assay type: functional
T1 sequence (Q9QUQ5 whole entry): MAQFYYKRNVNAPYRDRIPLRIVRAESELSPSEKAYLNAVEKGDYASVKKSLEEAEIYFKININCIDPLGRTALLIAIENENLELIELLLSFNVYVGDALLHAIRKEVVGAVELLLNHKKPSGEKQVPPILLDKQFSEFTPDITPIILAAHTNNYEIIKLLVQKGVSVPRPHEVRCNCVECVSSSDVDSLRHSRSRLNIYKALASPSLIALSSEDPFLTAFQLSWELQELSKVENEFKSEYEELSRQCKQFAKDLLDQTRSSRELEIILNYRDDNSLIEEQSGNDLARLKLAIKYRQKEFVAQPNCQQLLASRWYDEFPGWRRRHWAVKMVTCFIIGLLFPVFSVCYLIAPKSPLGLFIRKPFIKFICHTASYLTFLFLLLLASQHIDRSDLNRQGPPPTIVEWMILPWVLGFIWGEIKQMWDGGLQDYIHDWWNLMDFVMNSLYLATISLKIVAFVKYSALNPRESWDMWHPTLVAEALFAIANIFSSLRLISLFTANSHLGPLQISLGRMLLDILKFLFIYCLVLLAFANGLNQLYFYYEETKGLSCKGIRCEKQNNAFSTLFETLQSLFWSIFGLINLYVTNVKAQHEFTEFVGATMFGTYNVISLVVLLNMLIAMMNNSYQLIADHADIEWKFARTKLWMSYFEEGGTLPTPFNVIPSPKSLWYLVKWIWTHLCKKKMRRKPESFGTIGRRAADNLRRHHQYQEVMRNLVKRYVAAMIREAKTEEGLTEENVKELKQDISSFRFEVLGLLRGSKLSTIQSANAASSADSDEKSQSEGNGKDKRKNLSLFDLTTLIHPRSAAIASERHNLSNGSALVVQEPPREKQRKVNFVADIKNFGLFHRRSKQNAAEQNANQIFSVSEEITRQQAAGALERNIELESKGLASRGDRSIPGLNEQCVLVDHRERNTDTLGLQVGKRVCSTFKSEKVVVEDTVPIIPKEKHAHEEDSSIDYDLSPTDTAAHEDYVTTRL

[3] = inhibitors of HIV Env-driven cell fusion, dose response, cherry-pick (AID 652057); assay type: functional, cell-based
[4] = CEM21 lymphoblast cell cytotoxicity, dose response, cytotoxicity control for viral fusion inhibitor project, CellTiter-Glo luminescence, cherry-picked (AID 652042); assay type: functional, cell-based;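 also: potency for signal decrease meaning cytotoxicity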
[5] = ZM109 Env clade C HIV-1 fusion inhibitors, dose response, HeLa effector, CEM target cells, luciferase, cherry-pick (AID 652058); assay type: functional, cell-based
[6] = off-target signal loss in HeLa-CEM21 co-culture – HeLa F-luc CTL cells, cherry-picked, counter-screen for HIV-1 Env fusion inhibitor project, dose response (AID 652040); assay type: functional, cell-based;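 also: potency for signal decrease marking cytotoxic or nonspecific inhibition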
[7] = inhibitors of clade B AD8 Env fusion, dose response, cell-based, cherry-pick (AID 652062); assay type: functional;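 also: luciferase signal from cell-cell fusion driven by HIV-1 clade B AD8 Env; potency is for inhibitors of fusion seen as a drop in luminescence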
[8] = molecular target: T2, DNA repair protein RAD52 homolog (Homo sapiens, UniProt P43351); assay type: functional, biochemical
T2 sequence (P43351 whole entry): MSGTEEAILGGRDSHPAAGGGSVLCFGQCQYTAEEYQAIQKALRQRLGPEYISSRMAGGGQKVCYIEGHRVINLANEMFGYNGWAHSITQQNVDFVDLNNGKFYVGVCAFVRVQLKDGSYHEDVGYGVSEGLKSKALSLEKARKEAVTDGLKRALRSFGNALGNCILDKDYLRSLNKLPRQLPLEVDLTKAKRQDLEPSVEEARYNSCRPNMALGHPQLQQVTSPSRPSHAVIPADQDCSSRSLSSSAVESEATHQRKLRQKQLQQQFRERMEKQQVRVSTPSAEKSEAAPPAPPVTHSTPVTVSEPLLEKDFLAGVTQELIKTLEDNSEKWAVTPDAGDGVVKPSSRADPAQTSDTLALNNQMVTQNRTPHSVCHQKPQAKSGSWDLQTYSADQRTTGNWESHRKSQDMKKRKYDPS

[9] = molecular target: T1, Short transient receptor potential channel 4; assay: mouse TRPC4 channel inhibitors, dose response, cell-based, HEK293 TRPC4/mu-opioid, Fluo-4 calcium (AID 434942); assay type: functional;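 also: potency of inhibitors blocking the TRPC4 calcium response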
Nonstructural protein 1 = Nonstructural protein 1 (Influenza A virus, UniProt Q194T2); assay type: functional, Influenza A virus (A/California/07/2009(H1N1))
Nonstructural protein 1, sequence (Q194T2 whole entry): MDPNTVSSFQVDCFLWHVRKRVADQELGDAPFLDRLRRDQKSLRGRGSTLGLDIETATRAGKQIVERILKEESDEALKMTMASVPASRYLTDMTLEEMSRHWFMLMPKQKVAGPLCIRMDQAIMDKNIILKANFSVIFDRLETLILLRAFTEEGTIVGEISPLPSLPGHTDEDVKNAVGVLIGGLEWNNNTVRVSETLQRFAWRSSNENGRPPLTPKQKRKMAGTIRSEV

[10] = cytotoxicity in HEK-293T cells, dose response, cytotoxicity control for BCR NF-kB inhibitor project, luminescence, B-cell screen hits (AID 489021); assay type: functional, cell-based;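 also: HEK-293T cells carrying an NF-kB luciferase reporter; cells exposed to compound for about 14 hours before viability readout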
[11] = molecular target: T3, Rac GTPase-activating protein 1 (Homo sapiens, UniProt Q9H0H5); assay: MgcRacGAP GTPase-activating activity inhibitors, confirmation, biochemical, ADP Hunter fluorescence, primary and confirmatory (AID 624330); assay type: functional
T3 sequence (Q9H0H5 whole entry): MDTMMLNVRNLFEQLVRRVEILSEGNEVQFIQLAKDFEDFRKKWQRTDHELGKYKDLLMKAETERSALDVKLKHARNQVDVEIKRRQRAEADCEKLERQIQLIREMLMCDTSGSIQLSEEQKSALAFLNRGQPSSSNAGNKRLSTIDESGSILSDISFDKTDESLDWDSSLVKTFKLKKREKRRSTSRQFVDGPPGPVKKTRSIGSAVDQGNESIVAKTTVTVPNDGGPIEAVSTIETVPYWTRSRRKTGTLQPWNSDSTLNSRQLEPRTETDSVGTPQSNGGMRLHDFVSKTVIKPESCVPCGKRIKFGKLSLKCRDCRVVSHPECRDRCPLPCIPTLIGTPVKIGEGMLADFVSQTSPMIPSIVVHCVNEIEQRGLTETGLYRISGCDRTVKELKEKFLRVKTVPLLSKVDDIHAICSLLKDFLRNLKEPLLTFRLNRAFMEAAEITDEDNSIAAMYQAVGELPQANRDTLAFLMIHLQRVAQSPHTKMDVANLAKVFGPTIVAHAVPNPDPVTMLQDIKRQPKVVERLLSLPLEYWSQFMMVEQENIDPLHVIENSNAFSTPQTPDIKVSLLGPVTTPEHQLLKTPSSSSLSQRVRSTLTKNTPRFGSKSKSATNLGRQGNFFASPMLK

Eukaryotic translation initiation factor 4E, sequence (P63073 whole entry): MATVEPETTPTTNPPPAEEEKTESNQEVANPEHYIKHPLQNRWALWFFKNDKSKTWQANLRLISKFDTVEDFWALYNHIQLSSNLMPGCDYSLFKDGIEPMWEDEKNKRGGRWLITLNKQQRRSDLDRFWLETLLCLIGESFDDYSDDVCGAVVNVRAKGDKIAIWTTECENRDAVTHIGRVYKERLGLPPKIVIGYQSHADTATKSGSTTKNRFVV

C=CCn1c(S)nnc1-c1ccco1
IC50 [1]: > 64 µM (inactive)

COc1ccc(C(CCNCc2ccc(N(C)C)cc2)c2ccccc2)cc1 (centres undefined)
EC50 [2]: 5.96 µM (active)
AC50 [3]: 4.13 µM (active)
AC50 [4]: 18.2 µM (active)
AC50 [5]: 14.4 µM (active)
AC50 [6]: 17.5 µM (active)
AC50 [7]: 26.1 µM (active)

CCOc1cc2c3c(c1)C(C)CC(C)(C)N3C(=O)C2=O (centres undefined)
AC50 [3]: 8.22 µM (active)
AC50 [4]: 50.9 µM (active)
AC50 [5]: 6.91 µM (active)
AC50 [6]: 12.2 µM (active)
AC50 [7]: 12.7 µM (active)

COC(=O)Cn1cnc2c(Cl)nc(F)nc21
AC50 [3]: 20.5 µM (active)
AC50 [4]: 47.3 µM (active)
AC50 [6]: 25.6 µM (active)

COc1ccc(Cl)c2sc(N(CCN(C)C)C(=O)c3ccc4c(c3)OCCO4)nc12
AC50 [8]: 9.01 µM (active)

CCOc1ccccc1CN1CCN(Cc2cccc3nonc23)CC1CCO (centres undefined)
EC50 [9]: 5.31 µM (active)

CC1(Oc2ccc3ccccc3c2)CCN(Cc2cccn2-c2nccs2)C1 (centres undefined)
AC50 [3]: 10.9 µM (active)
AC50 [4]: 51.9 µM (active)
AC50 [5]: 12.3 µM (active)
AC50 [6]: 14.7 µM (active)
AC50 [7]: 29.4 µM (active)

O=C(N/N=C/c1ccc(O)cc1O)c1ccncc1
IC50 (Nonstructural protein 1): 5.88 µM (active)

CN(C)CCCNc1nc2cc(-c3cnn(Cc4ccccc4)c3)sc2c(=O)n1C
AC50 [8]: 19.8 µM (active)

C/C(CC(=O)N(C(C)C)C(C)C)=N\NC(=O)COc1ccc(Cl)cc1Cl
EC50 [9]: 13.3 µM (active)

C=CCN1C(=O)CS/C1=N\c1cccc(O)c1
IC50 [1]: > 64 µM (inactive)

Oc1cc(O)cc(-c2cc3ccc(O)cc3o2)c1 [MORACIN M]
IC50 [10]: > 80 µM (inactive)
IC50 [11]: 23 µM (active)

O=C(N/N=C/c1ccccc1O)c1ccncc1 [SALINAZID]
IC50 (Nonstructural protein 1): 7.54 µM (active)
